The values that follow come from a melting point compilation (Tetko et al.; mined from patent text by program, amines drawn as free bases though some values may be those of a salt).

Residues, ends and D or L forms follow the SMILES beside them. *: point of attachment. Boc = CC(C)(C)OC(=O)*

For `C=C(C)Cc1cc(NC(C)=O)c(C)c(C)c1O`, the melting point lay within 149 to 151 °C.
To `COc1ccccc1C1(O)C(=O)Nc2ccc(C)c(Cl)c21` (stereo not drawn) belongs 262 to 263 °C; to `COc1cc(C)cc(NC(=O)c2nnnn2Cc2ccccc2)c1OCc1ccccc1`, 181 to 183 °C; to `CCOCc1cc2cc(Cl)ccc2oc1=Nc1ccc(Cl)cc1`, 126 to 128 °C.
To `CC(C)(C)OC(=O)NC(C)(C)c1ccc(-c2nc(Nc3ccc(-n4ccnc4)cc3)ncc2Cl)cc1` belongs 218 to 220 °C; to `CC(O)C1(C)COC(c2ccc(F)cc2)OC1` (stereo not drawn), 78 °C.
Consider `CCCCCCCCCCCCCCCCCC(=O)OC1CC(C)(C)N(OCC(C)(C)O)C(C)(C)C1`, for which the melting point fell in the range of 51 to 56 °C.
To `COc1ccc(S(=O)(=O)C(CC(=O)NO)Cc2ccccc2)cc1OC` (stereo not drawn) belongs 77 to 79 °C.
The compound `O=C(Cn1c(-c2ccc(Cl)cc2)nc2cccnc21)Nc1ccccc1Cl` gave a melting point of 232 to 236 °C.
To `CN(C)Cc1ccc(CSCCNc2ncc(Cc3ccn(C)c(=O)c3)c(=O)[nH]2)o1` belongs 129 to 132 °C; to `N#Cc1ccc(O)cn1`, 191 to 194 °C; to `O=C(O)c1cc(O)c(I)c(O)c1`, 245 to 248 °C.
For `CCOC(=O)c1ccc(OCc2ccccc2)c(OC)c1`, the melting point was in the range of 72 to 74 °C.
To `O=C(O)C(Cc1ccccc1F)Cc1ccccc1F` belongs 110 to 111 °C; to `O=C(Nc1cc2ncc(CN3CCCC3)cc2cc1Cl)c1ccc(-c2ccc(F)cc2)cc1`, 188 °C; to `CCN1CC2OC(c3ccccc3)(C1)c1ccccc12` (stereo not drawn), 132 to 134 °C.
On to `N#CCCOc1ccc2c(c1)CCO2`, for which the melting point is less than 50 °C.
To `O=C(O)CC1(C(=O)O)CCSc2ccccc21` (stereo not drawn) belongs 168 to 170 °C.
To `Cc1cccc(C)c1NCC(N)=O` belongs 89 to 92 °C; to `O=[N+]([O-])c1cccc(/C=C/c2nc(C3CCCCCC3)cs2)c1`, 60 °C; to `CC1(N)CN(C(c2ccccc2)c2ccccc2)C1`, 84 to 86 °C.
`Cc1cc(OCc2oc(-c3ccc(C(F)(F)F)cc3)nc2C)ccc1/C=C/C(=O)O` had a melting point of 155 to 165 °C.
To `CN(C)c1cc(C=O)cc(N(C)C)c1N1CCCCC1` belongs 114 to 116 °C; to `COc1c(Br)c(C)nc(C)c1-c1ccc(Oc2ccc(OC(F)(F)F)cc2)cc1`, 39 to 41 °C; to `Cn1c(-c2ccccc2)c2c(c(C#N)c1=O)-c1ccccc1C2=O`, 255 to 256 °C.
Consider `CCCN(CCC)c1c2c(nn1C)N(c1c(C)cc(C)cc1Cl)CCC2`, for which the melting point was 90 to 91 °C.
To `Cc1ccc(-c2c(C3CCN(C)CC3)[nH]c(=O)c3ccccc23)cc1` belongs 244 to 246 °C; to `COc1cc(OCCNC(=O)C2Cc3ccccc3N2S(=O)(=O)c2ccc(-c3cc(C(F)(F)F)ccc3Cl)cc2)ccc1C(=O)O` (stereo not drawn), 98 to 104 °C; to `O=C(O)Cc1ccc(CNC(=O)C2Cc3ccccc3N2S(=O)(=O)c2ccc(-c3cccc(C(F)(F)F)c3)cc2)c(Cl)c1` (stereo not drawn), 95 to 106 °C.
Compound `CN1CCN(c2cc3c(F)cccc3c(=O)[nH]2)CC1CO` (stereo not drawn) displayed a melting point of 216 to 217 °C.
To `NC(=O)c1cc2c(c3nc(O)c(O)nc13)CCCC2` belongs more than 300 °C; to `COc1ccc2cc(C(=O)O)sc(=O)c2c1`, 291 to 292 °C.
`CCCC(=O)C(=CNc1ccccc1F)C(=O)OCC` yielded a melting point of 60 to 62 °C.
As for `CCc1cc(C(F)(C(F)(F)F)C(F)(F)F)cc(C)c1NC(=O)c1cccc(N=S=O)c1`, the melting point was in the range of 100 to 108 °C.
`CCCCc1cc(=O)c(C(=O)OCC)cn1Cc1ccc(-c2ccccc2C(=O)OC(C)(C)C)cc1` had a melting point of 80 to 81 °C.
To `Cc1ccc(SC(Cc2ccc(OCCN(C)c3nc4ccccc4o3)cc2)C(=O)O)cc1` (stereo not drawn) belongs 137 °C; to `OCCc1nccn1CCCCc1ccc(OCc2coc(/C=C/c3ccc(Cl)cc3)n2)cc1`, 127 to 128 °C; to `Oc1ccc(N2CCN(CC[C@H]3CC[C@H](Nc4ncccn4)CC3)CC2)cc1`, 192 to 194 °C.
Consider `Cn1nc(-c2nc(Br)c(N)nc2-c2ccccc2)ccc1=O`, for which the melting point was in the range of 220 to 222 °C.
`O=C1c2ccccc2C(=O)N1CCCSC1N=CC=CN1NC(=S)NCC(F)(F)F` (stereo not drawn) showed a melting point of 214 to 215 °C.
To `CC(C)(C)c1cc(C(=O)NCCc2ccc(N)cc2)cc(C(C)(C)C)c1O` belongs 193 to 195 °C.
To `COc1ccc(C(=O)N2CCc3cc(S(=O)(=O)N4CCN(c5cccc(Cl)c5)CC4)ccc32)cc1` belongs 193 to 194 °C; to `CNC(=S)NS(=O)(=O)c1cc(CCNC(=O)/C=C/c2cccs2)ccc1OCCOC(F)(F)F`, 161 to 163 °C.
With `Cc1cc(-n2cncn2)c2cccc(OCc3c(Cl)ccc(S(=O)(=O)N4CCC[C@H]4C(=O)NCC4CCN(Cc5ccccn5)CC4)c3Cl)c2n1`, the melting point was 118 °C.
To `Clc1ccc(C(=Cn2cnnn2)OCc2ccccc2)c(Cl)c1` belongs 92 °C; to `CCCCCCCCCCCCC#CC(F)(CCCCC(=O)O)CCCCC(=O)O`, 98 to 100 °C; to `CC(C)OC(=O)COCc1cc(-c2nn(C)c(C(F)(F)F)c2Cl)c(F)cc1Cl`, 55 °C.
To `CCC(=O)C(=Cc1ccc(C#N)cc1)C(=O)CC` belongs 59 to 60 °C; to `CS(=O)(=O)c1ccc(-c2cnn(-c3ccc(F)cc3)c(=O)c2Cc2ccccc2)cc1`, 180 to 182 °C; to `O=Cc1cc(O)c2c(c1O)CCCC2`, 145 °C.
`Cc1cc(NC(=O)c2[nH]c(C)c(-c3nc4ccc(C(=O)c5ccccc5)cc4[nH]3)c2C)no1` had a melting point of 271 to 273 °C.
To `Cc1c(C2CCC(c3ccccc3)(N(C)C)CC2)[nH]c2ccc(O)cc12` (stereo not drawn) belongs 164 to 169 °C; to `O=C(O)Cc1cn(Cc2ccc(OCc3csc(-c4ccccc4)n3)nc2)nc1-c1ccccc1`, 118 to 119 °C; to `O=c1[nH][nH]c(=O)c2c(O)c3ccccc3nc12`, more than 400 °C.
To `O=COCc1ccc2c(c1)C(C(Cl)(Cl)Cl)OC(C(Cl)(Cl)Cl)O2` (stereo not drawn) belongs 75 to 77 °C; to `CCCCOc1cc(C)c(O)cc1C`, 43 to 45 °C.
To `CNCCCS(=O)(=O)CCCC(F)(F)C(F)(F)F` belongs 55 to 57 °C; to `COc1ccc(-c2ccc(C3=NOC(CNC(C)=O)C3)cc2)ccc1=O` (stereo not drawn), 104 to 105 °C.
Turning to `O=C(NCc1ccncc1)Nc1cccc2ccccc12`, the melting point turned out to be 178 °C.
To `O=C(NCc1nc(O)cc(O)n1)c1cccs1` belongs 270 to 275 °C.
The compound `CCOC(=O)c1c(C)nc(N(C)N)c([N+](=O)[O-])c1Cl` gave a melting point of 159 to 161 °C.
To `O=C(NCCO)/C(=C/c1ccc(OCC(F)(F)F)cc1)NC(=O)c1ccc(OCCC2CC2)cc1` belongs 173 to 175 °C; to `COCC(C)Oc1cc(Oc2ccc(S(C)(=O)=O)nc2)cc2cc(C3=NCC(CCO)S3)[nH]c12` (stereo not drawn), 138 to 139 °C.
To `O=C(O)c1ccc2c(c1)C(=O)CC(c1ccccc1)=N2` belongs more than 300 °C; to `COc1ccc2[nH]c(-c3cc4cccnc4n3S(=O)(=O)c3ccc(C)cc3)cc2c1`, 226 to 227 °C; to `Cn1c(COc2ccc(CC3SC(=O)NC3=O)cc2)nc2ccc(Oc3cccc(NC(=O)Nc4ccc5c(c4)OCO5)c3)cc21` (stereo not drawn), 179 to 182 °C.
`CCCC1=C(C#N)C(c2cccc3oc(C)nc23)c2c[nH]nc2N1` (stereo not drawn) came in with a melting point of 208 °C.
To `N#Cc1ccc(C(F)(F)F)cc1NN=Nc1ccccc1` belongs 139 to 141 °C; to `CN(C)S(=O)(=O)Oc1ccc(-c2ccccc2)cc1`, 105 to 107 °C.
In the case of `CCCCNC(=O)NCCc1nc(-c2ccc(-c3ccccc3)cc2)c[nH]1`, the melting point was 178 °C.
To `CC(C)(C)OC(=O)N1CCCC1C(=O)NC(Cc1ccccc1)C(=O)NCC(=O)O` (stereo not drawn) (Boc-Pro-Phe-Gly-OH; configuration not given here) belongs 98 to 100 °C; to `Cc1cc(Br)cnc1CCCCNC1=NS(=O)(=O)c2cc(Br)ccc21`, 224 to 232 °C.
To `O=C(Nc1ccc(C(F)(F)F)cc1)Nc1ccc(S(=O)(=O)Nc2ccc(Cl)cc2)cc1` belongs 252 to 257 °C; to `Cc1cccc(C(C)C)c1NC(=O)NCC1(c2ccccc2)CCCC1`, 157 to 159 °C; to `CNc1cc(OCC2CO2)ccc1[N+](=O)[O-]` (stereo not drawn), 113 °C.
To `CC(C)NC(=O)c1nc(-c2ccc(F)cc2)c(-c2ccc(=O)n(C(C)C)n2)s1` belongs 122 to 124 °C; to `IC#CCSc1ccncc1`, 140 °C; to `Nc1sc2c(c1C(=O)c1ccc3c(c1)Cc1ccccc1-3)CCCC2`, 146 to 149 °C.
`CSCC#Cc1cc(F)c2ncc(C(=O)NCc3ccc(Cl)cc3)c(O)c2c1`: the melting point lay within 259 to 261 °C.
To `COc1c(C)cc(N2CCN(c3ccc(-n4c(C)n[nH]c4=O)cc3)CC2)cc1C` belongs 280 °C.
In the case of `CC(C)(C)c1ccc(/C=C/C(=O)Nc2ccc3c(c2)NCCC3)cc1`, the melting point fell in the range of 225 to 227 °C.
To `O=S(=O)(NCc1ccnc2ccccc12)c1ccc(-c2cc(Cl)ccc2Cl)cc1` belongs 124 °C; to `O=C(O)c1ccccc1N1C(=O)c2ccc([N+](=O)[O-])cc2C1=O`, 242 to 243 °C.
Turning to `COc1cc(OC)c(-c2cc3ccccc3n2C)cc1C=CC(=O)c1ccc(S(=O)(=O)N(C)C)cc1`, the melting point was 120 to 122 °C.
With `CC(C)(C)c1ccc(/C=C/C(=O)Nc2ccc3ncoc3c2)cc1`, the melting point was in the range of 147 to 148 °C.
Consider `CN(C(=O)c1ccc(Cl)cc1)c1ccccc1CCCC(=O)O`, for which the melting point was 123 °C.
To `CC(C)=CCC/C(C)=C/COCC(=O)c1cc(C(C)C)c(O)c(C(C)C)c1` belongs 70 to 71 °C; to `COc1cc(CNC(C)=O)c(Cl)cc1O`, more than 300 °C.

In general, melting point refers to the temperature of the solid-liquid transition.
